Like-named read-outs stand apart in the source and are kept apart here.
Assays:
[1] = molecular target: T1, recombinant EcTP enzyme (thymidine phosphorylase) (Escherichia coli, UniProt P07650); test: biochemical
T1 construct: purchased
Experimental: (§1) In this study, we utilized commercially available recombinant EcTP enzyme as a model for TP inhibition assessment due to its structural similarities with mammalian TP enzymes. Spectrophotometric TP inhibition assays were conducted by incubating 0.058 U of EcTP enzyme with 500 µM of test compounds at 30°C for 10 min. Subsequently, 1.5 mM of thymidine substrate was added, and absorbance changes were monitored for 10 min at 290 nm using a microplate reader. […] Mechanistic studies involved incubating the TP enzyme with varying inhibitor concentrations and substrate concentrations ranging from 0.1875 to 1.5 µM. Enzyme activity was assessed by measuring absorbance changes for an additional 10 min. Triplicate experiments were conducted for mechanistic investigations to ensure the results' robustness.

[2] = molecular target: T2, thymidine phosphorylase (EcTP) (Escherichia coli, UniProt P07650); test: biochemical
T2 construct: purchased
Experimental: Mechanism‐based studies were carried out on the selected compounds, that is, 1, 2, and 5.
as §1
Chemical reactions were examined using kinetic studies to determine their rates, mode of inhibition, and the variables influencing these characteristics. The kind and mechanism of inhibition of derivatives are ascertained here. Test compounds (0.5–500 µM) were incubated with TP (0.058 U/200 µL) for 10 min at 30°C in mechanistic studies. The addition of various thymidine concentrations (varying from 0.1875 to 1.5 µM) then started the process. Thymidine cleavage was tracked at 290 nm for ten min straight using an ELISA plate reader (SpectraMax 384; Molecular Devices, San Jose, CA, USA).

[3] = 500 µM test compound, 0.058 U EcTP, 1.5 mM thymidine, 30°C, read-out: % Inhibition
[4] = EcTP, thymidine substrate, absorbance at 290 nm, triplicate, read-out: IC50 ± SEM
[5] = dissociation constant from secondary replot of Lineweaver-Burk and Dixon plots, unit printed in text b13 only, read-out: Ki ± SEM
[6] = thymidine as variable substrate

T2 sequence (P07650 whole entry): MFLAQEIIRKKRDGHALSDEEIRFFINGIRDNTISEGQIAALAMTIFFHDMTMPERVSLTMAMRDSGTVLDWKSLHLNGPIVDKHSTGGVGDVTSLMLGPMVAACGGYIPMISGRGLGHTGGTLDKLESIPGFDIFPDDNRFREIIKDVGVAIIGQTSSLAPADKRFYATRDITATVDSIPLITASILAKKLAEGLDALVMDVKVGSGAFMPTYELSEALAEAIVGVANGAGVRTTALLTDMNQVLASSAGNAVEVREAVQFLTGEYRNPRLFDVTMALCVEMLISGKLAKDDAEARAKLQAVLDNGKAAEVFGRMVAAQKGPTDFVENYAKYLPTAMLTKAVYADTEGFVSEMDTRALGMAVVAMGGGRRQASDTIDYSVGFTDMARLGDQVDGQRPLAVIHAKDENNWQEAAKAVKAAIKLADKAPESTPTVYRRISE
T1 sequence (P07650 whole entry): as above

`CC1(C)CCC2=C(O1)C(=O)c1ccccc1C2=O` [Alpha‐lapachone (2), Alpha‐lapachone] gave an inhibition at 500 µM [1, 3] of 88.3%, an IC50 [1, 4] of 3.6 ± 0.9 µM and a Ki [2, 5] of 4.9 ± 0.008 µM. For the same compound, the “Type of Inhibitor” value [2, 6] was “Non‐competitive”.
`CC1(C)C=CC2=C(O1)C(=O)c1ccccc1C2=O` [Dehydro‐α‐lapachone (4), Dehydro‐α‐lapachone] gave an inhibition at 500 µM [1, 3] of 82.6% and an IC50 [1, 4] of 17.2 ± 1 µM.
Compound `CC(C)=CCC1=C(O)C(=O)c2ccccc2C1=O` [Lapachol (1), Lapachol] has an inhibition at 500 µM [1, 3] of 86.2%, an IC50 [1, 4] of 2.3 ± 0.1 µM and a Ki [2, 5] of 4.6 ± 0.006 µM. The “Type of Inhibitor” value [2, 6] was “Non‐competitive”.
For `O=c1[nH]c(=O)c2cc[nH]c2[nH]1` [7‐Deazaxanthine, reference compound], the inhibition at 500 µM [1] was 80.6% and the “Type of Inhibitor” value [2] was “Non‐competitive”.
`CC(C)=C(C)[C@H]1C[C@]2(C)OC3=C(C(=O)c4ccccc4C3=O)[C@H]3[C@@H]2[C@@]12C(=O)c1ccccc1[C@@]3(O)C2=O` [Peshawaraquinone (3), Peshawaraquinone] gave an inhibition at 500 µM [1, 3] of 87.1% and an IC50 [1, 4] of 4.9 ± 0.8 µM.
In the case of `COC(=O)C1(O)c2ccccc2C(=O)C1(O)CC=C(C)C` (stereo not drawn) [Indanone derivative (5), Methyl‐1,2‐dihydroxy‐2‐(3‐methylbut‐2‐en‐1‐yl)‐3‐oxo‐2,3‐dihydro‐1H‐indene‐1carboxylate], the IC50 [1] is reported as 1.8 ± 0.5 µM, the inhibition at 500 µM [1] is reported as 91.3% and the Ki [2] is reported as 7.1 ± 0.009 µM. The “Type of Inhibitor” value [2, 6] was “Non‐competitive”.
